Measured values reported in PubChem BioAssay AID330 (DTP/NCI, 2004).
Where “and” joins values, the source holds several entries; their conditions need not be identical. Equal values may be shown once. Inconclusive results and toxic doses are left out.

System: P388 leukemia ip, CD2F1 mice, survival T/C
Experiment: NCI In Vivo Anticancer Drug Screen. Data for tumor model P388 Leukemia (intraperitoneal) in CD2F1 (CDF1) mice
Settings: endpoint: median survival time, higher = longer survival
Outline: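 Mice carrying the transplanted tumor received test compound or vehicle. Survival was recorded in each group, and the value is the treated-group measurement divided by that of the vehicle-treated control group.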

[1] = dose: 60.0 mg/kg/injection, schedule: Q01DX005 (ip), vehicle: saline with Tween-80
[2] = dose: 120.0 mg/kg/injection, schedule: Q01DX005 (ip), vehicle: saline with Tween-80
[3] = dose: 240.0 mg/kg/injection, schedule: Q01DX005 (ip), vehicle: saline with Tween-80
[4] = dose: 100.0 mg/kg/injection, schedule: Q01DX009 (ip), vehicle: saline with Tween-80
[5] = dose: 100.0 mg/kg/injection, schedule: Q04DX003 (ip), vehicle: saline with Tween-80
[6] = dose: 200.0 mg/kg/injection, schedule: Q01DX009 (ip), vehicle: saline with Tween-80
[7] = dose: 200.0 mg/kg/injection, schedule: Q04DX003 (ip), vehicle: saline with Tween-80
[8] = dose: 400.0 mg/kg/injection, schedule: Q04DX003 (ip), vehicle: saline with Tween-80
[9] = dose: 25.0 mg/kg/injection, schedule: Q01DX009 (ip), vehicle: saline
[10] = dose: 50.0 mg/kg/injection, schedule: Q01DX009 (ip), vehicle: saline with Tween-80
[11] = dose: 50.0 mg/kg/injection, schedule: Q01DX009 (ip), vehicle: saline
[12] = dose: 200.0 mg/kg/injection, schedule: Q01DX009 (ip), vehicle: saline
[13] = dose: 100.0 mg/kg/injection, schedule: Q01DX001 (ip), vehicle: saline with Tween-80
[14] = dose: 200.0 mg/kg/injection, schedule: Q01DX001 (ip), vehicle: saline with Tween-80
[15] = dose: 100.0 mg/kg/injection, schedule: Q01DX009 (ip), vehicle: saline

`CN=C(N)N/N=C/c1ccc2c(c1)Cc1ccccc1-2` was tested, and the T/C (dose: 6.25 mg/kg/injection, schedule: Q04DX002 (ip), vehicle: saline with Tween-80) was 106 % of control and 122 % of control, the T/C (dose: 12.5 mg/kg/injection, schedule: Q04DX002 (ip), vehicle: saline with Tween-80) was 109 % of control and the T/C (dose: 25.0 mg/kg/injection, schedule: Q04DX002 (ip), vehicle: saline with Tween-80) was 107 % of control. The T/C (dose: 50.0 mg/kg/injection, schedule: Q04DX002 (ip), vehicle: saline with Tween-80) was 119 % of control and 124 % of control and the T/C (dose: 100.0 mg/kg/injection, schedule: Q04DX002 (ip), vehicle: saline with Tween-80) was 118 % of control.

`COc1ccc(S(N)(=O)=O)cc1C(=O)N1CCN2CCCC2C1` (configuration not stated) was tested, and the T/C (dose: 60.0 mg/kg/injection, schedule: Q01DX005 (ip), vehicle: saline) was 100 % of control, the T/C (dose: 120.0 mg/kg/injection, schedule: Q01DX005 (ip), vehicle: saline) was 100 % of control and the T/C (dose: 240.0 mg/kg/injection, schedule: Q01DX005 (ip), vehicle: saline) was 94 % of control.

In the case of `COc1cc(C(c2cc3c(cc2O)OCO3)N2CCN(C(c3ccc(O)c(OC)c3)c3cc4c(cc3O)OCO4)CC2)ccc1O` (configuration not stated), the T/C [1] is reported as 89 % of control, the T/C [2] is reported as 92 % of control and the T/C [3] is reported as 95 % of control.

`CC12CCC3C(CCC4CC(OC(=O)Cc5ccc(N(CCCl)CCCl)cc5)CCC43C)C1CCC(=O)N2` (configuration not stated) was tested, and the T/C (dose: 0.75 mg/kg/injection, schedule: Q01DX009 (ip), vehicle: saline with Tween-80) was 112 % of control and 117 % of control, the T/C (dose: 1.5 mg/kg/injection, schedule: Q01DX009 (ip), vehicle: saline with Tween-80) was 111 % of control and 124 % of control and the T/C (dose: 6.0 mg/kg/injection, schedule: Q01DX009 (ip), vehicle: saline with Tween-80) was 169 % of control and 184 % of control. The T/C (dose: 12.0 mg/kg/injection, schedule: Q01DX009 (ip), vehicle: saline with Tween-80) was 220 % of control and 237 % of control and the T/C (dose: 24.0 mg/kg/injection, schedule: Q01DX009 (ip), vehicle: saline with Tween-80) was 104 % of control and 121 % of control.

In the case of `COc1cc2c(cc1OC)C1CC(=O)C(CCCCCCC3CN4CCc5cc(OC)c(OC)cc5C4CC3=O)CN1CC2` (configuration not stated), the T/C (dose: 50.0 mg/kg/injection, schedule: Q01DX009 (ip), vehicle: Klucel (hydroxypropylcellulose) (HPC)) is reported as 91 % of control, the T/C (dose: 100.0 mg/kg/injection, schedule: Q01DX009 (ip), vehicle: Klucel (hydroxypropylcellulose) (HPC)) is reported as 92 % of control and the T/C (dose: 200.0 mg/kg/injection, schedule: Q01DX009 (ip), vehicle: Klucel (hydroxypropylcellulose) (HPC)) is reported as 99 % of control.

`COC(=O)c1ccc(SSc2ccc(C(=O)OC)cc2[N+](=O)[O-])c([N+](=O)[O-])c1` was tested, and the T/C [4] was 91 % of control, the T/C [5] was 90 % of control and the T/C [6] was 100 % of control. The T/C [7] was 95 % of control, the T/C (dose: 400.0 mg/kg/injection, schedule: Q01DX009 (ip), vehicle: saline with Tween-80) was 91 % of control and the T/C [8] was 90 % of control.

With `O=C(/C=C/c1ccc(Cl)cc1)c1ccccc(=O)c1O` the T/C (dose: 50.0 mg/kg/injection, schedule: Q01DX005 (ip), vehicle: Klucel (hydroxypropylcellulose) (HPC)) was 101 % of control and the T/C (dose: 100.0 mg/kg/injection, schedule: Q01DX005 (ip), vehicle: Klucel (hydroxypropylcellulose) (HPC)) was 100 % of control.

For `COc1cc(Cc2cnc(N)nc2N)cc(OC)c1OC`, the T/C (dose: 50.0 mg/kg/injection, schedule: Q01DX005 (ip), vehicle: saline with Tween-80) was 100 % of control, the T/C (dose: 100.0 mg/kg/injection, schedule: Q01DX005 (ip), vehicle: saline with Tween-80) was 99 % of control and the T/C (dose: 200.0 mg/kg/injection, schedule: Q01DX005 (ip), vehicle: saline with Tween-80) was 100 % of control. For the same compound, the T/C (dose: 400.0 mg/kg/injection, schedule: Q01DX005 (ip), vehicle: saline with Tween-80) was 100 % of control.

`O=CC=O` was tested, and the T/C [9] was 98 % of control, the T/C [10] was 116 % of control and the T/C [11] was 120 % of control. For the same compound, the T/C [6] was 152 % of control and the T/C [12] was 88 % of control.

`CSCc1cc([N+](=O)[O-])ccc1N` was tested, and the T/C [13] was 91 % of control and the T/C [14] was 98 % of control.

`CCCCCn1cnc2c(=S)nc[nH]c21` was tested, and the T/C [5] was 104 % of control, the T/C [7] was 100 % of control and the T/C [8] was 90 % of control.

`CC(=O)NC(Cc1cnc[nH]1)C(C)=O` (configuration not stated) was tested, and the T/C [11] was 100 % of control, the T/C [15] was 98 % of control and the T/C [12] was 104 % of control.

With `OCCCCCCCCCCCC1C=CCC1` (configuration not stated) the T/C (dose: 100.0 mg/kg/injection, schedule: Q01DX001 (ip), vehicle: saline) was 101 % of control, the T/C (dose: 200.0 mg/kg/injection, schedule: Q01DX001 (ip), vehicle: saline) was 101 % of control and the T/C (dose: 400.0 mg/kg/injection, schedule: Q01DX001 (ip), vehicle: saline) was 107 % of control.

For `Cc1c(COC(=O)NC(C)C)c(COC(=O)NC(C)C)c2c3ccccc3c3ccccc3n12`, the T/C (dose: 12.5 mg/kg/injection, schedule: Q01DX009 (ip), vehicle: distilled water + Tween-80) was 180 % of control, the T/C (dose: 25.0 mg/kg/injection, schedule: Q01DX009 (ip), vehicle: distilled water + Tween-80) was 173 % of control and the T/C (dose: 50.0 mg/kg/injection, schedule: Q01DX009 (ip), vehicle: distilled water + Tween-80) was 110 % of control. For the same compound, the T/C (dose: 100.0 mg/kg/injection, schedule: Q01DX009 (ip), vehicle: distilled water + Tween-80) was 88 % of control.

In the case of `c1cc[n+](Cc2c3ccccc3cc3c2ccc2ccccc23)cc1`, the T/C (dose: 6.25 mg/kg/injection, schedule: Q01DX005 (ip), vehicle: Klucel (hydroxypropylcellulose) (HPC)) is reported as 112 % of control, the T/C (dose: 12.5 mg/kg/injection, schedule: Q01DX005 (ip), vehicle: Klucel (hydroxypropylcellulose) (HPC)) is reported as 112 % of control and the T/C (dose: 25.0 mg/kg/injection, schedule: Q01DX005 (ip), vehicle: Klucel (hydroxypropylcellulose) (HPC)) is reported as 110 % of control.

With `NC(=O)CS(=O)CC(N)C(=O)O` (configuration not stated) the T/C (dose: 50.0 mg/kg/injection, schedule: Q01DX005 (ip), vehicle: saline) was 100 % of control, the T/C (dose: 100.0 mg/kg/injection, schedule: Q01DX005 (ip), vehicle: saline) was 105 % of control and the T/C (dose: 200.0 mg/kg/injection, schedule: Q01DX005 (ip), vehicle: saline) was 95 % of control.

For `CCO/C([O-])=C(\C=N\[n+]1ccccc1C)c1ccccc1`, the T/C [11] was 109 % of control, the T/C [15] was 110 % of control and the T/C [12] was 109 % of control.

With `Nc1cc2c3c(cccc3c1)C(=O)N2` the T/C [13] was 106 % of control and the T/C [14] was 106 % of control.

In the case of `CC1(C)COP(Oc2ccccc2)OC1`, the T/C (dose: 25.0 mg/kg/injection, schedule: Q01DX009 (ip), vehicle: saline + Tween-80 + alcohol) is reported as 102 % of control, the T/C (dose: 50.0 mg/kg/injection, schedule: Q01DX009 (ip), vehicle: saline + Tween-80 + alcohol) is reported as 103 % of control and the T/C (dose: 100.0 mg/kg/injection, schedule: Q01DX009 (ip), vehicle: saline + Tween-80 + alcohol) is reported as 100 % of control. For the same compound, the T/C (dose: 200.0 mg/kg/injection, schedule: Q01DX009 (ip), vehicle: saline + Tween-80 + alcohol) was 96 % of control.

In the case of `COc1cc(/C=C2\CCC/C(=C\c3ccc(OCC4CO4)c(OC)c3)C2=O)ccc1OCC1CO1` (configuration not stated), the T/C [10] is reported as 101 % of control, the T/C [4] is reported as 95 % of control and the T/C [6] is reported as 94 % of control.

In the case of `CCOC(=O)N(C)CCc1cc(OC)c(OC)cc1/C=C\c1ccc(OC)c(OC)c1`, the T/C (dose: 12.5 mg/kg/injection, schedule: Q01DX001 (ip), vehicle: saline + alcohol) is reported as 100 % of control, the T/C (dose: 25.0 mg/kg/injection, schedule: Q01DX001 (ip), vehicle: saline + alcohol) is reported as 98 % of control and the T/C (dose: 50.0 mg/kg/injection, schedule: Q01DX001 (ip), vehicle: saline + alcohol) is reported as 98 % of control.

With `CC(C)=Cc1ccccc1C1(C)C(c2ccccc2)=C1c1ccccc1` the T/C (dose: 100.0 mg/kg/injection, schedule: Q04DX002 (ip), vehicle: Klucel (hydroxypropylcellulose) (HPC)) was 100 % of control, the T/C (dose: 200.0 mg/kg/injection, schedule: Q04DX002 (ip), vehicle: Klucel (hydroxypropylcellulose) (HPC)) was 98 % of control and the T/C (dose: 400.0 mg/kg/injection, schedule: Q04DX002 (ip), vehicle: Klucel (hydroxypropylcellulose) (HPC)) was 98 % of control.

For `CC1([CH2][Hg][I])OCCOC1[CH2][Hg][I]` (configuration not stated), the T/C [9] was 105 % of control.

With `O=C(O)CNC(=O)C(=O)c1c[nH]c2ccc([N+](=O)[O-])cc12` the T/C [1] was 97 % of control, the T/C [2] was 97 % of control and the T/C [3] was 94 % of control.

With `Nc1nnc(/C=C/c2ccc(Cl)c(Cl)c2)o1` the T/C [1] was 95 % of control, the T/C [2] was 103 % of control and the T/C [3] was 102 % of control.
